Experimental data as given in the supplement of paper PMC10883282.
Counter-ions that a name gives are not always drawn.

Key:
Test in all cases: relative viability vs DMSO control (72 h) (fraction); higher = more viable cells
[1] = test system: SK-LMS-1
Method in brief: (§1)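 Sarcoma cell lines in 384-well plates, seeded to reach 80–90% confluence, were given compound after 24 h and kept 72 h at 37 °C, 5% CO2, with 0.1% DMSO vehicle and a 5 µM positive control. Relative viability came from ATPLite as percent growth, averaged over up to triplicate wells. On the rescaled values, 1 equals full and 0 equals none.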

[2] = test system: VA-ES-BJ
Method in brief: as §1

[3] = test system: HS729
Method in brief: as §1

[4] = test system: RD
Method in brief: as §1

[5] = test system: MES-SA
Method in brief: as §1

CC(C)NC[C@@H](C(=O)N1CCN(c2ncnc3c2[C@H](C)C[C@H]3O)CC1)c1ccc(Cl)cc1 [Ipatasertib]
relative viability
Settings | [1] | [2] | [3] | [4] | [5]
0.00017 µM | 0.971 | 1.07 | 1 | 1.03 | 0.935
0.00051 µM | 0.95 | 1.04 | 0.969 | 1.06 | 0.904
0.00152 µM | 0.96 | 1.03 | 0.91 | 1.06 | 0.9385
0.00457 µM | 1 | 1.022 | 0.916 | 1.05 | 0.905
0.01372 µM | 0.954 | 0.955 | 0.844 | 1.07 | 0.8986
0.04115 µM | 0.959 | 0.8984 | 0.849 | 1.05 | 0.847
0.1235 µM | 0.909 | 0.819 | 0.802 | 0.991 | 0.751
0.3704 µM | 0.8304 | 0.666 | 0.726 | 0.916 | 0.619
1.111 µM | 0.651 | 0.492 | 0.643 | 0.799 | 0.467
3.333 µM | 0.594 | 0.418 | 0.532 | 0.681 | 0.317
10 µM | 0.55 | 0.368 | 0.49 | 0.623 | 0.24

N#CCNC(=O)c1ccc(-c2ccnc(Nc3ccc(N4CCOCC4)cc3)n2)cc1 [Momelotinib]
relative viability
Settings | [1] | [2] | [3] | [4] | [5]
0.00017 µM | 1.13 | 1.07 | 1.07 | 0.971 | 0.942
0.00051 µM | 1.13 | 1.07 | 1.04 | 0.998 | 0.971
0.00152 µM | 1.11 | 1.08 | 1.05 | 0.987 | 0.9306
0.00457 µM | 1.1 | 1.066 | 1.06 | 1.03 | 0.952
0.01372 µM | 1.13 | 1.09 | 1.01 | 0.995 | 0.934
0.04115 µM | 1.06 | 1.07 | 1.01 | 1.02 | 0.881
0.1235 µM | 1.08 | 1.04 | 0.995 | 1.041 | 0.84
0.3704 µM | 1.05 | 1.03 | 0.939 | 1.04 | 0.786
1.111 µM | 0.946 | 0.97 | 0.859 | 1.02 | 0.685
3.333 µM | 0.924 | 0.987 | 0.777 | 0.994 | 0.616
10 µM | 0.886 | 0.891 | 0.741 | 0.905 | 0.378

CC(C)(O)CNc1nc(Nc2ccnc(C(F)(F)F)c2)nc(-c2cccc(C(F)(F)F)n2)n1 [Enasidenib]
relative viability
Settings | [1] | [2] | [3] | [4] | [5]
0.00017 µM | 1.03 | 1.04 | 0.966 | 1.11 | 0.911
0.00051 µM | 0.979 | 1.06 | 0.974 | 1.125 | 0.947
0.00152 µM | 1.01 | 1.05 | 0.995 | 1.11 | 0.958
0.00457 µM | 1.02 | 1.03 | 1 | 1.08 | 0.956
0.01372 µM | 1.01 | 1.06 | 1.002 | 1.1 | 0.9539
0.04115 µM | 1.01 | 1.05 | 0.985 | 1.1 | 0.932
0.1235 µM | 1.02 | 1.06 | 1.02 | 1.11 | 0.9612
0.3704 µM | 1.06 | 1.07 | 0.941 | 1.08 | 0.945
1.111 µM | 1.13 | 1.05 | 0.994 | 1.09 | 0.926
3.333 µM | 1.11 | 1.02 | 1.01 | 1.09 | 0.918
10 µM | 0.83 | 0.976 | 0.928 | 1.04 | 0.808

COC(=O)N[C@@H](C)CNc1nccc(-c2cn(C(C)C)nc2-c2cc(Cl)cc(NS(C)(=O)=O)c2F)n1 [Encorafenib]
relative viability
Settings | [1] | [2] | [3] | [4] | [5]
0.00017 µM | 1.01 | 1.02 | 1.069 | 0.963 | 0.98
0.00051 µM | 1.02 | 1.04 | 1.077 | 1.01 | 0.944
0.00152 µM | 0.9804 | 1.04 | 1.07 | 1.015 | 1
0.00457 µM | 1.017 | 1.03 | 0.993 | 1 | 0.985
0.01372 µM | 0.953 | 1.03 | 0.994 | 1.01 | 0.958
0.04115 µM | 0.933 | 1.03 | 0.995 | 1.01 | 1.01
0.1235 µM | 0.9782 | 1 | 1.04 | 1.01 | 0.998
0.3704 µM | 0.894 | 0.989 | 0.975 | 0.978 | 0.972
1.111 µM | 0.7389 | 0.852 | 0.821 | 0.807 | 0.714
3.333 µM | 0.49 | 0.637 | 0.69 | 0.447 | 0.461
10 µM | 0.441 | 0.659 | 0.719 | 0.45 | 0.547

CO[C@H]1C[C@@H]2CC[C@@H](C)[C@@](O)(O2)C(=O)C(=O)N2CCCC[C@H]2C(=O)O[C@H]([C@H](C)C[C@@H]2CC[C@@H](OCCO)[C@H](OC)C2)CC(=O)[C@H](C)/C=C(\C)[C@@H](O)[C@@H](OC)C(=O)[C@H](C)C[C@H](C)/C=C/C=C/C=C/1C [Certican]
relative viability
Settings | [1] | [2] | [3] | [4] | [5]
0.00017 µM | 1 | 0.934 | 0.907 | 1.09 | 0.862
0.00051 µM | 0.894 | 0.855 | 0.943 | 1.09 | 0.803
0.00152 µM | 0.759 | 0.643 | 0.896 | 0.964 | 0.608
0.00457 µM | 0.661 | 0.604 | 0.835 | 0.888 | 0.489
0.01372 µM | 0.631 | 0.529 | 0.903 | 0.848 | 0.422
0.04115 µM | 0.571 | 0.494 | 0.829 | 0.8231 | 0.398
0.1235 µM | 0.549 | 0.482 | 0.828 | 0.773 | 0.378
0.3704 µM | 0.572 | 0.478 | 0.808 | 0.7358 | 0.373
1.111 µM | 0.564 | 0.468 | 0.821 | 0.73 | 0.377
3.333 µM | 0.5489 | 0.47 | 0.828 | 0.71 | 0.358
10 µM | 0.512 | 0.46 | 0.891 | 0.657 | 0.332

C=C1C[C@@H]2CC[C@@]34C[C@H]5O[C@H]6[C@@H](O3)[C@H]3O[C@H](CC[C@@H]3O[C@H]6[C@H]5O4)CC(=O)C[C@@H]3[C@@H](OC)[C@@H](C[C@H](O)CN)O[C@H]3C[C@H]3O[C@@H](CC[C@@H]1O2)C[C@@H](C)C3=C [Eribulin Mesylate]
relative viability
Settings | [1] | [2] | [3] | [4] | [5]
1.37 pM | 0.971 | 1.06 | 1.04 | 1.069 | 1.01
4.1 pM | 0.952 | 1 | 0.987 | 1.041 | 0.996
12.3 pM | 0.909 | 0.901 | 0.965 | 0.9352 | 0.973
37 pM | 0.819 | 0.72 | 0.874 | 0.683 | 0.425
0.00011 µM | 0.708 | 0.474 | 0.835 | 0.442 | 0.472
0.00033 µM | 0.52 | 0.391 | 0.756 | 0.268 | 0.311
0.001 µM | 0.482 | 0.437 | 0.6663 | 0.254 | 0.254
0.003 µM | 0.392 | 0.359 | 0.583 | 0.247 | 0.178
0.009 µM | 0.359 | 0.295 | 0.519 | 0.273 | 0.122
0.027 µM | 0.308 | 0.244 | 0.48 | 0.254 | 0.109
460 fM | 0.996 | 1.08 | 1.08 | 1.07 | 0.996

CN1CCN(c2ccc(C(=O)Nc3n[nH]c4ccc(Cc5cc(F)cc(F)c5)cc34)c(NC3CCOCC3)c2)CC1 [Entrectinib]
relative viability
Settings | [1] | [2] | [3] | [4] | [5]
0.00017 µM | 1.13 | 1.09 | 1.06 | 1.08 | 0.942
0.00051 µM | 1.1 | 1.08 | 0.975 | 1.13 | 0.942
0.00152 µM | 1.12 | 1.06 | 0.931 | 1.14 | 0.931
0.00457 µM | 1.13 | 1.05 | 0.948 | 1.13 | 0.925
0.01372 µM | 1.1 | 1.06 | 0.946 | 1.11 | 0.899
0.04115 µM | 1.07 | 1.03 | 0.959 | 1.1 | 0.904
0.1235 µM | 1.07 | 1.022 | 0.925 | 1.11 | 0.892
0.3704 µM | 1.072 | 1.01 | 0.919 | 1.07 | 0.893
1.111 µM | 1.03 | 0.976 | 0.832 | 0.934 | 0.821
3.333 µM | 0.856 | 0.894 | 0.665 | 0.589 | 0.702
10 µM | 0.0143 | 0.575 | 0.382 | 0.0669 | 0.364
